Measurements published in ChEMBL document CHEMBL5726876, “NHE3-binding compounds and methods for inhibiting phosphate transport” (2019).

experiment: Cell-based activity under Prompt Conditions: Cell-based activity under Prompt Conditions. Rat or human NHE3-mediated Na+-dependent H+ antiport was measured using a modification of the pH sensitive dye method originally reported by Paradiso (PNAS USA. 81:7436-7440, 1984). Opossum kidney (OK) cells were obtained from the ATCC and propagated per their instructions. The rat NHE3 gene (GenBank M85300) or the human NHE3 gene (GenBank NM_004174.1) was introduced into OK cells via electroporation, and cells were seeded into 96 well plates and grown overnight. Medium was aspirated from the wells, cells were washed twice with NaCl-HEPES buffer (100 mM NaCl, 50 mM HEPES, 10 mM glucose, 5 mM KCl, 2 mM CaCl2, 1 mM MgCl2, pH 7.4), then incubated for 30 min at room temperature with NH4Cl-HEPES buffer (20 mM NH4Cl, 80 mM NaCl, 50 mM HEPES, 5 mM KCl, 2 mM CaCl2, 1 mM MgCl2, pH 7.4) containing 5 μM bis(acetoxymethyl) 3,3′-(3′,6′-bis(acetoxymethoxy)-5-((acetoxymethoxy)carbonyl)-3-oxo-3H-spiro[isobenzofuran-1,9′-xanthene]-2′,7′-diyl)dipropanoate (BCECF-AM).Cells were washed twice with Ammonium free, Na+-free HEPES (100 mM choline, 50 mM HEPES, 10 mM glucose, 5 mM KCl, 2 mM CaCl2, 1 mM MgCl2, pH 7.4) and incubated in the same buffer for 10 minutes at room temperature to lower intracellular pH. […] Initial rates were plotted as the average 2 or more replicates, and pIC50 values were estimated using GraphPad Prism.

Compound	IC50 [nM]
O=C(NCCOCCOCCOCCNS(=O)(=O)c1ccc(O[C@H]2c3ccccc3C[C@@H]2N2CCCCC2)cc1)c1cccc(C(=O)NCCOCCOCCOCCNS(=O)(=O)c2ccc(O[C@H]3c4ccccc4C[C@@H]3N3CCCCC3)cc2)c1	39.8
CN1Cc2c(Cl)cc(Cl)cc2[C@H](c2cccc(S(=O)(=O)NCCOCCOCCNC(=O)CN(CCN(CC(=O)O)CC(=O)NCCOCCOCCNS(=O)(=O)c3cccc([C@@H]4CN(C)Cc5c(Cl)cc(Cl)cc54)c3)CC(=O)O)c2)C1	12.6
CN1Cc2c(Cl)cc(Cl)cc2C(c2cccc(S(=O)(=O)NCCOCCOCCNC(=O)CCC(CCC(=O)NCCOCCOCCNS(=O)(=O)c3cccc([C@@H]4CN(C)Cc5c(Cl)cc(Cl)cc54)c3)(CCC(=O)NCCOCCOCCNS(=O)(=O)c3cccc([C@@H]4CN(C)Cc5c(Cl)cc(Cl)cc54)c3)N(C)C)c2)C1 (some centres undefined)	67.6
O=C(NCCCCNC(=O)NCCOCCOCCNC(=O)Nc1cccc(O[C@H]2c3ccccc3C[C@@H]2N2CCCCC2)c1)NCCOCCOCCNC(=O)Nc1cccc(O[C@H]2c3ccccc3C[C@@H]2N2CCCCC2)c1	< 10000
CN1Cc2c(Cl)cc(Cl)cc2[C@H](c2cccc(S(=O)(=O)NCCOCCOCCNC(=O)CCC(CCC(=O)NCCOCCOCCNS(=O)(=O)c3cccc([C@@H]4CN(C)Cc5c(Cl)cc(Cl)cc54)c3)(CCC(=O)NCCOCCOCCNS(=O)(=O)c3cccc([C@@H]4CN(C)Cc5c(Cl)cc(Cl)cc54)c3)NC(=O)NCCS(=O)(=O)O)c2)C1	20
CCOCCOCCOCCOCCC(=O)NCCOCCOCCOCCNS(=O)(=O)c1ccc(O[C@H]2c3ccccc3C[C@@H]2N2CCCCC2)cc1	35.5
CN1Cc2c(Cl)cc(Cl)cc2[C@H](c2cccc(S(=O)(=O)NCCOCCOCCOCCNC(=O)CN3CCN(CC(=O)NCCOCCOCCOCCNS(=O)(=O)c4cccc([C@@H]5CN(C)Cc6c(Cl)cc(Cl)cc65)c4)CCN(CC(=O)NCCOCCOCCOCCNS(=O)(=O)c4cccc([C@@H]5CN(C)Cc6c(Cl)cc(Cl)cc65)c4)CCN(CC(=O)NCCOCCOCCOCCNS(=O)(=O)c4cccc([C@@H]5CN(C)Cc6c(Cl)cc(Cl)cc65)c4)CC3)c2)C1	501
CN1Cc2c(Cl)cc(Cl)cc2[C@H](c2cccc(S(=O)(=O)NCCOCCOCCOCCNC(=O)c3ccc(-c4ccc(Cl)cc4)cc3)c2)C1	< 10000
O=C(NCCCCNC(=O)NCCOCCOCCNS(=O)(=O)c1ccc(O[C@H]2c3ccccc3C[C@@H]2N2CCCC2)cc1)NCCOCCOCCNS(=O)(=O)c1ccc(O[C@H]2c3ccccc3C[C@@H]2N2CCCC2)cc1	2.51
CN1Cc2c(Cl)cc(Cl)cc2[C@H](c2cccc(S(=O)(=O)NCCOCCOCCNC(=O)CCC(CCC(=O)NCCOCCOCCNS(=O)(=O)c3cccc([C@@H]4CN(C)Cc5c(Cl)cc(Cl)cc54)c3)(CCC(=O)NCCOCCOCCNS(=O)(=O)c3cccc([C@@H]4CN(C)Cc5c(Cl)cc(Cl)cc54)c3)NC(=O)COCC(=O)O)c2)C1	25.1
COCCNC(=O)CN(C)CC(=O)NCCOCCOCCNC(=O)NCCOCCOCCOCCN1CCN(c2cccc(-c3nc(NC(=N)N)nc4ccc(Cl)cc34)c2)CC1	20
CN1Cc2c(Cl)cc(Cl)cc2[C@H](c2cccc(S(=O)(=O)NCCOCCOCCOCCNC(=O)CCC(N)(CCC(=O)NCCOCCOCCOCCNS(=O)(=O)c3cccc([C@@H]4CN(C)Cc5c(Cl)cc(Cl)cc54)c3)CCC(=O)NCCOCCOCCOCCNS(=O)(=O)c3cccc([C@@H]4CN(C)Cc5c(Cl)cc(Cl)cc54)c3)c2)C1	63.1
CN1Cc2c(Cl)cc(Cl)cc2[C@H](c2cccc(S(=O)(=O)NCCOCCOCCNC(=O)CCN(CCC(=O)NCCOCCOCCNS(=O)(=O)c3cccc([C@@H]4CN(C)Cc5c(Cl)cc(Cl)cc54)c3)CCC(=O)NCCOCCOCCNS(=O)(=O)c3cccc([C@@H]4CN(C)Cc5c(Cl)cc(Cl)cc54)c3)c2)C1	3160
CN1Cc2c(Cl)cc(Cl)cc2[C@H](c2cccc(S(=O)(=O)NCCOCCOCCNC(=O)NCCC(N)(CCNC(=O)NCCOCCOCCNS(=O)(=O)c3cccc([C@@H]4CN(C)Cc5c(Cl)cc(Cl)cc54)c3)CCNC(=O)NCCOCCOCCNS(=O)(=O)c3cccc([C@@H]4CN(C)Cc5c(Cl)cc(Cl)cc54)c3)c2)C1	44.7
